In the supplement of paper PMC9436093:

Tests used:
Test in all cases: cell viability relative to DMSO (100%) and bortezomib (0%) controls; higher = more viable / less sensitive
Settings in all cases: 72 h
[1] = test system: HAP1 HDAC1 KO + HDAC1 H141A transgene
Description: (§1)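 HAP1 cells (wildtype, HDAC1/2/3 catalytically inactive H>A mutant lines in wildtype or knockout background, HDAC3 KO, or wildtype pre-treated 6 h with 1 uM MS-275 or JQ12) were seeded onto compound-containing 384-well plates with an 8-point 1:3 dose series. ATP was read by CellTiter-Glo after 72 h. Viability is normalised to plate DMSO wells (100%) and bortezomib positive-control wells (0%) after outlier removal. Duplicate screen.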

[2] = test system: HAP1 HDAC2 KO + HDAC2 H142A transgene
Description: as §1

[3] = test system: HAP1 HDAC3 KO + HDAC3 H135A transgene
Description: as §1

HAP1 HDAC3 KO = test system: HAP1 HDAC3 KO
Description: as §1

[4] = test system: HAP1 WT + HDAC1 H141A transgene
Description: as §1

[5] = test system: HAP1 WT + HDAC2 H142A transgene
Description: as §1

[6] = test system: HAP1 WT + HDAC3 H135A transgene
Description: as §1

[7] = test system: HAP1 wildtype + JQ12 1 uM (6 h pretreatment)
Description: as §1

[8] = test system: HAP1 wildtype + MS-275 1 uM (6 h pretreatment)
Description: as §1

HAP1 wildtype = test system: HAP1 wildtype
Description: as §1

CNC(=O)c1ccccc1Sc1ccc2c(/C=C/c3ccccn3)n[nH]c2c1 [Axitinib]
cell viability [%]
Settings | HAP1 HDAC3 KO | HAP1 wildtype | [1] | [2] | [3] | [4] | [5] | [6] | [7] | [8]
0.0123 µM | 120 | 119 | 112 | 113 | 121 | 105 | 130 | 114 | 106 | 114
0.037 µM | 99.1 | 95.8 | 94.3 | 94 | 87 | 90.6 | 82.1 | 90.2 | 76.9 | 92.3
0.111111111 µM | 87.1 | 121 | 93 | 86.6 | 94 | 93.5 | 88.7 | 96.9 | 82.1 | 93.5
0.333333333 µM | 102 | 102 | 84.5 | 107 | 101 | 94.8 | 101 | 121 | 109 | 101
1 µM | 172 | 115 | 155 | 137 | 129 | 121 | 140 | 147 | 102 | 113
3 µM | 48.9 | 72 | 54 | 23.4 | 34.8 | 21.8 | 46.4 | 88.11 | 57.83 | 67.8
9 µM | 79.4 | 62 | 26.6 | -0.112 | 36.3 | 5.34 | 16.3 | 101 | 48.6 | 52.5
27 µM | 50.5 | 92.3 | 36 | 27.5 | 50.1 | 25.9 | 46.8 | 102 | 72.2 | 65.8

COc1cc(Nc2ncc3c(n2)-c2ccc(Cl)cc2C(c2c(F)cccc2OC)=NC3)ccc1C(=O)O [Alisertib]
cell viability [%]
Settings | HAP1 HDAC3 KO | HAP1 wildtype | [1] | [2] | [3] | [4] | [5] | [6] | [7] | [8]
0.00617 µM | 94.9 | 103 | 95.2 | 103 | 103 | 101 | 86.2 | 92.9 | 79.6 | 107
0.0185 µM | 131 | 136 | 122 | 92.1 | 121 | 95.7 | 115 | 103 | 100 | 128
0.0556 µM | 117 | 100 | 109 | 103 | 112 | 95.2 | 99.5 | 123 | 95.3 | 108
0.166666667 µM | 70 | 110 | 52.1 | 31.8 | 70.2 | 71.2 | 62.6 | 147 | 34.2 | 43.2
0.5 µM | 111 | 96.5 | 53.3 | 51 | 79.4 | 37.1 | 49.8 | 105 | 51.9 | 72.44
1.5 µM | 114 | 83.2 | 38.4 | 54.5 | 82.3 | 15.1 | 21.9 | 101 | 51.7 | 61.6
4.5 µM | 103 | 74.2 | 33.1 | 36.2 | 71.6 | 22.1 | 17.5 | 90.6 | 54.4 | 53.2
13.5 µM | 116 | 73.4 | 19.6 | 21.8 | 89 | 2.6 | 12.7 | 108 | 52 | 46.8

Cn1cc(-c2ccc(S(=O)(=O)n3ccc(/C=C/C(=O)Nc4ccccc4N)c3)cc2)cn1 [4SC-202]
cell viability [%]
Settings | HAP1 HDAC3 KO | HAP1 wildtype | [1] | [2] | [3] | [4] | [5] | [6] | [7] | [8]
0.0123 µM | 120 | 105 | 137 | 125 | 130 | 125 | 141 | 140 | 123 | 168
0.037 µM | 95.7 | 88.7 | 106 | 108 | 85.68 | 85.5 | 78.14 | 89.7 | 113 | 112
0.111111111 µM | 127 | 120 | 109 | 157 | 109 | 110 | 135 | 128 | 133 | 121
0.333333333 µM | 122.3 | 98.9 | 111 | 93.36 | 104 | 117 | 117 | 133 | 98.5 | 123
1 µM | 11.2 | 22.3 | 7.79 | 82.3 | -3.64 | -2.58 | -0.0563 | 6.41 | 10.9 | 3.53
3 µM | -10.7 | -0.806 | -53.5 | -4.75 | -11 | -21.1 | -10.7 | -13.8 | -3.08 | -1.84
9 µM | -10.9 | -6.67 | -23.1 | -2.31 | -9.81 | -15.7 | -11.2 | -10.1 | -6.3 | -6.4
27 µM | -5.87 | 2.64 | 14.2 | -4.84 | -4.35 | -7.2 | -5.99 | -6.44 | -3.68 | 0.166

Nc1ncn([C@H]2C[C@H](O)[C@@H](CO)O2)c(=O)n1 [decitabine]
cell viability [%]
Settings | HAP1 HDAC3 KO | HAP1 wildtype | [1] | [2] | [3] | [4] | [5] | [6] | [7] | [8]
0.0309 µM | 96.5 | 104 | 106 | 105.4 | 100 | 95.3 | 102 | 105 | 92.9 | 107
0.0926 µM | 103 | 96.6 | 117 | 104 | 111 | 96.2 | 109 | 117 | 98 | 82.5
0.277777778 µM | 125 | 110 | 93.4 | 89.47 | 115 | 68.1 | 80.5 | 116 | 72.8 | 71.3
0.833333333 µM | 155 | 141 | 51.5 | 37.5 | 148 | 27.2 | 44.3 | 153 | 50.9 | 40.43
2.5 µM | 144 | 115 | 24.3 | 10.8 | 148 | -11.5 | 5.61 | 119.46 | 15.9 | 9.68
7.5 µM | 112 | 60.8 | 0.764 | 5.27 | 96.2 | 0.523 | 4.31 | 49.5 | 1.97 | 9.13
22.5 µM | 123 | 50.1 | 5.07 | -5.41 | 114 | -11.1 | 0.159 | 58.5 | 3.44 | 2.79
67.5 µM | 147 | 47.2 | 19.6 | 9.97 | 108 | 1.73 | 7.07 | 61.2 | 1.41 | 10.8
